Assays:
[1] = test system: YAP1 phosphorylation at S127; experiment: immunoblot analysis of Hippo signaling in CUTO9 cells; format: cell-based, human; settings: 2 hours, brigatinib, lorlatinib 3 μM each, MRT67307 1 μM
CUTO9 cells = experiment: wound-healing assay in CUTO9 cells; format: cell-based, human; settings: for suppression of cell migration (wound closure) / impact on wound closure: 24 hours; for inhibition at 1 µM: Homo sapiens, 24 h, read-out: inhibition of wound closure
MARK2/3 = experiment: immunoblotting of cross-competition pulldowns; format: binding, human; settings: CUTO9 cells pre-treated with 2.5 μM TKI for 24 hours, immunoblot
A549 NSCLC cells = experiment: wound-healing assay in A549 cells; settings: for wound closure inhibition: A549 cells (no EML4-ALK, mutant KRAS), 48 hours
[2] = cited from earlier work
MARK2 = settings: read-out: reported in vitro IC50; cited from earlier work
MARK3 = settings: read-out: previously reported in vitro IC50; cited from earlier work

SMILES | phosphorylation of YAP1 at S127 [1] | competition for binding of MARK2/3 to i-brigatinib beads (MARK2/3) | wound closure inhibition (A549 NSCLC cells) | suppression of cell migration (wound closure) (CUTO9 cells; CUTO9 cells, 3 μM) | inhibition at 1 µM (CUTO9 cells) | impact on wound closure (CUTO9 cells; CUTO9 cells) | other results
O=C(NCCCNc1nc(Nc2cccc(CN3CCOCC3)c2)ncc1C1CC1)C1CCC1 [MRT67307] | induced phosphorylation of YAP1 at S127 | – | – | – | – | – | reduction of cell migration (CUTO9 cells; CUTO9 cells, 1 μM): approximately 25%; reduction of cell migration (CUTO9 cells; CUTO9 cells, 3 μM): ~40%
CCc1cc2c(cc1N1CCC(N3CCOCC3)CC1)C(C)(C)c1[nH]c3cc(C#N)ccc3c1C2=O [alectinib] | – | more completely competed | wound closure inhibition observed | ~45% | ~30% | – | –
COc1cc(N2CCC(N3CCN(C)CC3)CC2)ccc1Nc1ncc(Cl)c(Nc2ccccc2P(C)(C)=O)n1 [brigatinib] | induced phosphorylation of YAP1 at S127 | more completely competed | wound closure inhibition observed | approximately 70% | ~40% | – | reported clinically relevant concentration ([2]; clinical): 2.9 µM; Cmax ([2]; read-out: plasma Cmax, reported, no reference given): 2500 nM; competition for EML4-ALK (EML4-ALK): strongest extent of competition; IC50 (MARK2): 93 nM; IC50 (MARK3): 127 nM
C[C@@H](Oc1cc(-c2cnn(C3CCNCC3)c2)cnc1N)c1c(Cl)ccc(F)c1Cl [crizotinib] | – | – | – | – | – | no impact on wound closure | –
CNC(=O)c1ccc(Nc2ncc(C(F)(F)F)c(NCc3nccnc3N(C)S(C)(=O)=O)n2)cc1 [defactinib] | – | – | – | – | – | – | effects on migration (A549 NSCLC cells; A549 cells): minor, but notable effects; effects on migration (CUTO9 cells; CUTO9 cells): minor, but notable effects
C[C@H]1Oc2cc(cnc2N)-c2c(nn(C)c2C#N)CN(C)C(=O)c2ccc(F)cc21 [lorlatinib] | not observed | – | – | – | – | no impact on wound closure | –
